Source: publication PMC3365589 (Journal of the American Chemical Society, 2011)

How the values were obtained:
[1] = target: human α7 nAChR (Homo sapiens, UniProt P36544); assay type: cell-based
[2] = target: α1_2βγδ (Torpedo) nAChR; assay: Equilibrium competition binding with [125I]α-BTX on Torpedo membranes; settings: read-out: Ki ± SEM
[3] = target: chimeric α7-5HT3 nAChR (UniProt P22770+P23979, M226I/T225I); assay type: binding; settings: read-out: Ki ± SEM; α7–5HT3 (chick), [125I]α-BTX
[4] = target: human α4β2 nAChR (Homo sapiens, UniProt P17787+P43681); assay type: binding
[5] = target: human α3β2 nAChR (Homo sapiens, UniProt P17787+P32297); assay type: binding; settings: read-out: Ki ± SEM, [3H]epibatidine
[6] = system: human M1 mAChR; assay: [3H]NMS binding inhibition, CHO cell membranes, M1; settings: 1 μM
[7] = system: human M2 mAChR; assay: [3H]NMS binding inhibition, CHO cell membranes, M2; settings: 1 μM
[8] = system: human M3 mAChR; assay: [3H]NMS binding inhibition, CHO cell membranes, M3; settings: 1 μM
[9] = system: human M4 mAChR; assay: [3H]NMS binding inhibition, CHO cell membranes, M4; settings: 1 μM
[10] = system: human M5 mAChR; assay: [3H]NMS binding inhibition, CHO cell membranes, M5; settings: 1 μM, M5, [3H]NMS
[11] = system: calcium channels; assay: Broad receptor binding screening; settings: 10 μM
[12] = system: mice; settings: intraperitoneal injection of a lethal dose
[13] = target: α1_2βγδ (Torpedo) nAChR; settings: read-out: Kd of radioligand on muscle-type receptor; cited from earlier work

Compound | Effect on rate of desensitization of ACh-evoked currents ([1]; 350 μM ACh, −60 mV) | Direct agonist effect (current evoked when applied on its own) ([1]; 0.1–50 nM, n = 6) | Reversibility of blocking action on α7 nAChR ([1]; after a 10–15 min washout) | Ki [2] [nM] | Ki [3] [nM] | Fraction of [3H]epibatidine displaced (partial antagonist property) [4] | Ki ([4]; read-out: Ki ± SEM, α4β2 (human), [3H]epibatidine) [nM] | Ki [5] [nM] | Effect on 3H-NMS binding [6] | Effect on 3H-NMS binding [7] | Effect on 3H-NMS binding [8] | Effect on 3H-NMS binding [9] | Radiotracer displacement [10] [%] | Binding activity for calcium channels [11] | Toxicological profile (symptoms) [12] | Kd [13] [nM]
C=C1CCCC2=NC[C@H](C)[C@@H](C)C[C@@]23CCC(C(=O)O)=C[C@@H]3[C@@H]2O[C@]3(C[C@H]4CCC[C@@]5(CC[C@@]6(O[C@@H](CC[C@@]6(C)O)C1)O5)O4)C[C@@H](C)[C@@H](O)[C@H]2O3 [PnTX A, pinnatoxin A] | did not appear to affect the rate of desensitization | did not evoke any current | not reversible | 2.8 ± 0.03 | 0.35 ± 0.04 | approximately half | 15.6 ± 5.2 | 9.4 ± 1.9 | no significant effect | no significant effect | no significant effect | no significant effect | 35 | no significant binding activity | transient mouse hyperactivity, followed by a decrease in respiratory rate with prominent abdominal breathing leading to death due to respiratory paralysis | 
α-bungarotoxin [α-BTX] |  |  |  |  |  |  |  |  |  |  |  |  |  |  |  | 0.05
